Experiments:
Type in all cases: cell-based
T47D cells [1] = assay: Quantitative analysis of LC3B+ve puncta cells (autophagy) by immunofluorescent staining in 3D culture; settings: for autophagy (LC3B+ve puncta cells) with cytokine treatment: T47D in 3D culture, day 15, vs untreated T47D mono-culture
Source text: Observations made with the in vitro model system shown here are consistent with in vivo observations in bone in a preclinical model for studying breast cancer dormancy at metastatic sites. a & b, Quantitative analysis of cells positive for LC3B^+ve puncta in images of immunofluorescent staining of autophagic protein (LC3B), cytoplasm (Phalloidin), and DNA (Hoechst) of T47D and BT474 cells in 3D mono-culture or indirect co-culture (#) with different BM niche cells (hFOB or hMSC) analyzed. Induction of autophagy observed in the indirect co-culture condition for T47D or BT474 with hFOB at Day 10 & 15, but not in mono-culture of T47D or co-culture of T47D with hMSC cells. […] In the case of T47D #hMSC insert exchange to #hFOB, induction of autophagy was observed upon insert exchange with similar observations for BT474 cells in these co-cultures. Significant differences assessed by Student's two-sided t-test, where differences shown for comparison between time points in co-culture conditions (*p<0.05, **p<0.01; ***p<0.001). Data are shown represent mean±SD (n=3).
(§1) Significant differences assessed by ANOVA with Tukey's multiple comparisons test, where differences are shown for comparison between controls and multiple conditions at day 15 time point (*p<0.05, **p<0.01; ***p<0.001). Data are shown represent mean±SD (n=3).
Significant differences assessed by one-way ANOVA with Tukey's multiple comparisons test, where differences are shown for comparison between multiple time points (*p<0.05, **p<0.01; ***p<0.001). Data are shown represent mean±SD (n=3).

T47D cells [2] = assay: EdU proliferation assay in 3D mono-culture or indirect co-culture with hFOB; settings: T47D in 3D culture, day 15, vs untreated T47D mono-culture
Procedure: Indirect co-culture also enables facile switching to elucidate effects of transition from dormancy-promoting to growth-promoting microenvironments. Breast cancer cell proliferation assessment of over time culture with different conditions in 3D hydrogels: 5-ethynyl-2′-deoxyuridine (EdU) proliferation assay was measured for both T47D & BT474 cells at each time point during 15 days of culture. a & b, Quantification of proliferative (EdU^+ve) T47D & BT474 cells alone (control) or in indirect co-culture (#) with different BM niche cells (hFOB or hMSC). […] Significant differences assessed by Student's two-sided t-test, where differences shown for comparison between time points in mono and co-culture conditions (*p<0.05, **p<0.01; ***p<0.001). e, Quantitative analysis of metabolic activity with AlamarBlue assay of T47D cells after insert exchange at day 10 (fold change relative to day 3). Statistical differences determined with ANOVA with Tukey's multiple comparisons test, where differences are shown for comparison between co-culture conditions on day 15 and 20 (*p<0.05, **p<0.01; ***p<0.001). Data are shown represent mean±SD (n=3).
as §1

T47D cells [3] = assay: Quantitative analysis of viable cells (viability/growth) of BCCs in 3D mono-culture or indirect co-culture with hFOB; settings: T47D in 3D culture treated with recombinant human cytokines, vs untreated T47D mono-culture; day 15
Procedure: Significant differences were assessed by ANOVA with Tukey's multiple comparisons test, where differences are shown for comparison between controls and multiple conditions at day 15 time point (*p<0.05, **p<0.01; ***p<0.001). Data are shown represent mean±SD (n=3).

Molecule	autophagy (LC3B+ve puncta cells) with autophagy inhibitor (T47D cells [1]; T47D #hFOB co-culture, 12.5 pg/mL, 2 doses (Day 6 and Day 14), observation over 25 days)	proliferation rate (EdU+ve cells) with cytokine treatment (T47D cells [2])	growth (viable cells) with cytokine treatment (T47D cells [3])	autophagy (LC3B+ve puncta cells) with cytokine treatment (T47D cells [1])
CCN(CCO)CCCC(C)Nc1ccnc2cc(Cl)ccc12 (stereo not shown) [HCQ, hydroxychloroquine, reference compound]	inhibition of autophagy	–	–	–
MCP1: recombinant human MCP1 cytokine	–	significantly decreased the proliferation rate	significant growth inhibition	induced autophagosome formation
TNFa	–	significantly decreased the proliferation rate	significant growth inhibition	induced autophagosome formation

Reference: US20220356452A1, “INDIRECT THREE-DIMENSIONAL CO-CULTURE OF DORMANT TUMOR CELLS AND USES THEREOF” (University of Delaware, priority 2019, published 2022)
